# Assay results as given in ChEMBL document CHEMBL3046635, “Synthesis and Herbicidal Activity of New Pyrazole-4-carboxamide Derivatives” (J Pestic Sci, 2004).
# Active and inactive are the calls of the source.
# What was measured:
# Cyperus difformis [1] = experiment: Pre-emergence herbicidal activity against Cyperus difformis at 500 g a.i/ha measured after 14 days; format: functional, organism-based
# Rotala indica [2] = experiment: Pre-emergence herbicidal activity against Rotala indica at 500 g a.i/ha measured after 14 days; format: functional, organism-based
# Cyperus difformis [3] = experiment: Pre-emergence herbicidal activity against Cyperus difformis at 100 g a.i/ha measured after 14 days; format: functional, organism-based
# Echinochloa oryzicola [4] = experiment: Post-emergence herbicidal activity against Echinochloa oryzicola assessed as bleaching of stem/leaf parts; format: functional, organism-based; note: test concentration or dose not given here
# Lindernia procumbens [5] = experiment: Pre-emergence herbicidal activity against Lindernia procumbens assessed as bleaching of stem/leaf parts; format: functional, organism-based
# Rotala indica [6] = experiment: Pre-emergence herbicidal activity against Rotala indica assessed as bleaching of stem/leaf parts; format: functional, organism-based
# Echinochloa oryzicola [7] = experiment: Pre-emergence herbicidal activity against Echinochloa oryzicola at 500 g a.i/ha measured after 14 days; format: functional, organism-based
# Elatine triandra [8] = experiment: Pre-emergence herbicidal activity against Elatine triandra at 500 g a.i/ha measured after 14 days; format: functional, organism-based
# Ammannia multiflora [9] = experiment: Post-emergence herbicidal activity against Ammannia multiflora assessed as bleaching of stem/leaf parts; format: functional, organism-based; note: test concentration or dose not given here
# Echinochloa oryzicola [10] = experiment: Pre-emergence herbicidal activity against Echinochloa oryzicola assessed as bleaching of stem/leaf parts; format: functional, organism-based
# Elatine triandra [11] = experiment: Pre-emergence herbicidal activity against Elatine triandra assessed as bleaching of stem/leaf parts; format: functional, organism-based
# Oryza sativa [12] = experiment: Phytotoxicity against Oryza sativa cv. Koshihikari (rice) at 100 g a.i/ha measured after 14 days; format: organism-based; conditions: in vivo, 336 h
# Cyperus difformis [13] = experiment: Pre-emergence herbicidal activity against Cyperus difformis assessed as bleaching of stem/leaf parts; format: functional, organism-based
# Echinochloa oryzicola [14] = experiment: Pre-emergence herbicidal activity against Echinochloa oryzicola at 100 g a.i/ha measured after 14 days; format: functional, organism-based
# Elatine triandra [15] = experiment: Pre-emergence herbicidal activity against Elatine triandra at 100 g a.i/ha measured after 14 days; format: functional, organism-based
# Pontederia vaginalis [16] = experiment: Pre-emergence herbicidal activity against Monochoria vaginalis assessed as bleaching of stem/leaf parts; format: functional, organism-based
# [17] = system: Schoenoplectiella juncoides; experiment: Pre-emergence herbicidal activity against Schoenoplectiella juncoides at 100 g a.i/ha measured after 14 days; format: functional, organism-based
# Eleocharis acicularis [18] = experiment: Pre-emergence herbicidal activity against Eleocharis acicularis at 100 g a.i/ha measured after 14 days; format: functional, organism-based
# Ammannia multiflora [19] = experiment: Pre-emergence herbicidal activity against Ammannia multiflora assessed as bleaching of stem/leaf parts; format: functional, organism-based
# Lindernia procumbens [20] = experiment: Pre-emergence herbicidal activity against Lindernia procumbens at 100 g a.i/ha measured after 14 days; format: functional, organism-based
# Ammannia multiflora [21] = experiment: Pre-emergence herbicidal activity against Ammannia multiflora at 500 g a.i/ha measured after 14 days; format: functional, organism-based
# Lindernia procumbens [22] = experiment: Pre-emergence herbicidal activity against Lindernia procumbens at 500 g a.i/ha measured after 14 days; format: functional, organism-based
# Rotala indica [23] = experiment: Post-emergence herbicidal activity against Rotala indica assessed as bleaching of stem/leaf parts; format: functional, organism-based; note: test concentration or dose not given here
# [24] = system: Schoenoplectiella juncoides; experiment: Pre-emergence herbicidal activity against Schoenoplectiella juncoides assessed as bleaching of stem/leaf parts; format: functional, organism-based
# Eleocharis acicularis [25] = experiment: Pre-emergence herbicidal activity against Eleocharis acicularis assessed as bleaching of stem/leaf parts; format: functional, organism-based
# [26] = system: Schoenoplectiella juncoides; experiment: Pre-emergence herbicidal activity against Schoenoplectiella juncoides at 500 g a.i/ha measured after 14 days; format: functional, organism-based
# Rotala indica [27] = experiment: Pre-emergence herbicidal activity against Rotala indica at 100 g a.i/ha measured after 14 days; format: functional, organism-based
# [28] = system: Schoenoplectiella juncoides; experiment: Post-emergence herbicidal activity against Schoenoplectiella juncoides assessed as bleaching of stem/leaf parts; format: functional, organism-based; note: test concentration or dose not given here
# Lindernia procumbens [29] = experiment: Post-emergence herbicidal activity against Lindernia procumbens assessed as bleaching of stem/leaf parts; format: functional, organism-based; note: test concentration or dose not given here
# Pontederia vaginalis [30] = experiment: Post-emergence herbicidal activity against Monochoria vaginalis assessed as bleaching of stem/leaf parts; format: functional, organism-based; note: test concentration or dose not given here
# Cyperus difformis [31] = experiment: Post-emergence herbicidal activity against Cyperus difformis assessed as bleaching of stem/leaf parts; format: functional, organism-based; note: test concentration or dose not given here
# Pontederia vaginalis [32] = experiment: Pre-emergence herbicidal activity against Monochoria vaginalis at 100 g a.i/ha measured after 14 days; format: functional, organism-based
# Ammannia multiflora [33] = experiment: Pre-emergence herbicidal activity against Ammannia multiflora at 100 g a.i/ha measured after 14 days; format: functional, organism-based
# Eleocharis acicularis [34] = experiment: Post-emergence herbicidal activity against Eleocharis acicularis assessed as bleaching of stem/leaf parts; format: functional, organism-based; note: test concentration or dose not given here
# Oryza sativa [35] = experiment: Phytotoxicity against Oryza sativa cv. Koshihikari (rice) at 500 g a.i/ha measured after 14 days; format: organism-based; conditions: in vivo, 336 h
# Eleocharis acicularis [36] = experiment: Pre-emergence herbicidal activity against Eleocharis acicularis at 500 g a.i/ha measured after 14 days; format: functional, organism-based
# Elatine triandra [37] = experiment: Post-emergence herbicidal activity against Elatine triandra assessed as bleaching of stem/leaf parts; format: functional, organism-based; note: test concentration or dose not given here
# Pontederia vaginalis [38] = experiment: Pre-emergence herbicidal activity against Monochoria vaginalis at 500 g a.i/ha measured after 14 days; format: functional, organism-based
Compound,Activity (Cyperus difformis [1]),Activity (Rotala indica [2]),Activity (Cyperus difformis [3]),Activity (Echinochloa oryzicola [4]),Activity (Lindernia procumbens [5]),Activity (Rotala indica [6]),Activity (Echinochloa oryzicola [7]),Activity (Elatine triandra [8]),Activity (Ammannia multiflora [9]),Activity (Echinochloa oryzicola [10]),Activity (Elatine triandra [11]),Activity (Oryza sativa [12]),Activity (Cyperus difformis [13]),Activity (Echinochloa oryzicola [14]),Activity (Elatine triandra [15]),Activity (Pontederia vaginalis [16]),Activity [17],Activity (Eleocharis acicularis [18]),Activity (Ammannia multiflora [19]),Activity (Lindernia procumbens [20]),other results
CONC(=O)c1cn(C)nc1OCc1cccc(C(F)(F)F)c1,Active,Active,Active,Active,Active,Active,Active,Active,Active,Active,Active,Non-toxic,Active,Active,Active,Active,Active,inactive,Active,Active,Activity (Ammannia multiflora [21]): Active; Activity (Lindernia procumbens [22]): Active; Activity (Rotala indica [23]): Active; Activity [24]: Active; Activity (Eleocharis acicularis [25]): Active; Activity [26]: Active; Activity (Rotala indica [27]): Active; Activity [28]: Active; Activity (Lindernia procumbens [29]): Active; Activity (Pontederia vaginalis [30]): Active; Activity (Cyperus difformis [31]): Active; Activity (Pontederia vaginalis [32]): Active; Activity (Ammannia multiflora [33]): Active; Activity (Eleocharis acicularis [34]): Active; Activity (Oryza sativa [35]): Non-toxic; Activity (Eleocharis acicularis [36]): Active; Activity (Elatine triandra [37]): Active; Activity (Pontederia vaginalis [38]): Active
Cn1cc(C(=O)NOc2ccc(C(F)(F)F)cc2)c(OCc2cccc(C(F)(F)F)c2)n1,Active,Active,Active,Active,Active,Active,Active,Active,Active,Active,Active,Non-toxic,Active,Active,Active,Active,Active,Active,Active,Active,Activity (Ammannia multiflora [21]): Active; Activity (Lindernia procumbens [22]): Active; Activity (Rotala indica [23]): Active; Activity [24]: Active; Activity (Eleocharis acicularis [25]): Active; Activity [26]: Active; Activity (Rotala indica [27]): Active; Activity [28]: Active; Activity (Lindernia procumbens [29]): Active; Activity (Pontederia vaginalis [30]): Active; Activity (Cyperus difformis [31]): Active; Activity (Pontederia vaginalis [32]): Active; Activity (Ammannia multiflora [33]): Active; Activity (Eleocharis acicularis [34]): Active; Activity (Oryza sativa [35]): Non-toxic; Activity (Eleocharis acicularis [36]): Active; Activity (Elatine triandra [37]): Active; Activity (Pontederia vaginalis [38]): Active
